US5340929A, “Trisazo dye and dye composition containing the same” (Orient Chemical Industries, Ltd., priority 1992, dated 1994)
Where two headings read alike, the source gives them in different places.

Legend:
[1] = Water resistance of writing (drawdown paper dipped in tap water, reflection density); assay type: physicochemical; details: drawndown paper, 3% dye solution, air-dried one day
Procedure: Light resistance: The resulting dye was dissolved in a 5% aqueous diethylene glycol solution to obtain a 3% dye solution. […] A degree of discoloration was compared with that before testing.
Water resistance: The drawndown paper was air-dried for one day and dipped in tap water.
A: Reflection density is more than 70% of that before testing.
B: Reflection density is 50 to 70% of that before testing.
C: Reflection density is less than 50% that before testing.

strains TA98 [2] = assay type: cell-based
Procedure: Further, the trisazo dye of the present invention is a nontoxic trisazo dye which gives negative results in a back mutation test using an organism, which is generally known as a test method for evaluating toxicity, i.e. AMES test (mutation test).
Evaluation method of Ames test
Regarding various specimen solutions respectively containing a trisazo dyes obtained in Examples 1 to 8 of the present invention and dyes of Comparative Examples 1 to 3, the number of mutant colonies was determined using strains TA98. 2. When the ratio is less than 2, it is "negative" and, when the ratio is more than 2, it is "positive", and the results are shown in Table. 1.

Hue of dye / writing = assay type: physicochemical
strains TA98 [3] = details: prior art statement, background; cited from earlier work

| Compound | Writing evaluation: Water resistance [1] | Ames test: ratio of the number of colonies to control (strains TA98 [2]; TA98, S-9 (+), 20 μg/plate) | Ames test: ratio of the number of colonies to control (strains TA98 [2]; TA98, S-9 (+), 78 μg/plate) | Ames test: ratio of the number of colonies to control (strains TA98 [2]; TA98, S-9 (+), 313 μg/plate) | Ames test: ratio of the number of colonies to control (strains TA98 [2]; TA98, S-9 (+), 1250 μg/plate) | Ames test: ratio of the number of colonies to control (strains TA98 [2]; TA98, S-9 (+), 5000 μg/plate) | Ames test: ratio of the number of colonies to control (strains TA98 [2]; TA98, S-9 (-), 20 μg/plate) | Ames test: ratio of the number of colonies to control (strains TA98 [2]; TA98, S-9 (-), 78 μg/plate) | Ames test: ratio of the number of colonies to control (strains TA98 [2]; TA98, S-9 (-), 313 μg/plate) | Ames test: ratio of the number of colonies to control (strains TA98 [2]; TA98, S-9 (-), 1250 μg/plate) | Ames test: ratio of the number of colonies to control (strains TA98 [2]; TA98, S-9 (-), 5000 μg/plate) | Hue (Hue of dye / writing) | AMES evaluation (strains TA98 [2]; TA98, positive/negative from ratio of colonies to control) | Hue (Hue of dye / writing; listed as Comparative Example 1) | Ames test result (strains TA98 [3]) |
| --- | --- | --- | --- | --- | --- | --- | --- | --- | --- | --- | --- | --- | --- | --- | --- |
| Nc1ccc(N=Nc2ccc(N(c3ccccc3)c3ccc(N=Nc4c(S(=O)(=O)O)cc5cc(S(=O)(=O)O)c(N=Nc6ccccc6)c(O)c5c4N)cc3)cc2)c(O)c1 [Ex. 1] | A (Reflection density is more than 70% of that before testing.) | 1.18 | 1.17 | 1.32 | 0.41 | 0.29 | 0.95 | 0.82 | 0.82 | 0.95 | 0.77 | Reddish |  |  |  |
| Cc1ccc(N(c2ccc(N=Nc3ccc(O)cc3O)cc2)c2ccc(N=Nc3c(S(=O)(=O)O)cc4cc(S(=O)(=O)O)c(N=Nc5ccccc5)c(O)c4c3N)cc2)cc1 [Ex. 2] | B (Reflection density is 50 to 70% of that before testing.) | 1.17 | 1.09 | 1.02 | 0.83 | 0.87 | 1.19 | 1.32 | 1.04 | 1.06 | 1.18 | Reddish |  |  |  |
| CCC(C)c1ccc(N=Nc2c(S(=O)(=O)O)cc3cc(S(=O)(=O)O)c(N=Nc4ccc(N(c5ccccc5)c5ccc(N=Nc6ccc(O)cc6O)cc5)cc4)c(N)c3c2O)cc1 (stereo not drawn) [Ex. 3] | A (Reflection density is more than 70% of that before testing.) | 1.30 | 1.07 | 1.17 | 1.67 | 0.77 | 0.87 | 0.83 | 0.78 | 0.87 | 0.70 | Reddish |  |  |  |
| Nc1ccc(N=Nc2ccc(N(c3ccccc3)c3ccc(N=Nc4c(S(=O)(=O)O)cc5cc(S(=O)(=O)O)c(N=Nc6ccc(S(=O)(=O)O)cc6)c(O)c5c4N)cc3)cc2)c(O)c1 [Ex. 4] | A (Reflection density is more than 70% of that before testing.) | 1.23 | 1.22 | 1.21 | 1.51 | 1.17 | 1.06 | 1.02 | 1.05 | 0.99 | 1.02 | Reddish |  |  |  |
| CN(c1ccc(N=Nc2ccc(N)cc2O)cc1)c1ccc(N=Nc2c(S(=O)(=O)O)cc3cc(S(=O)(=O)O)c(N=Nc4ccccc4)c(O)c3c2N)cc1 [Ex. 5] | B (Reflection density is 50 to 70% of that before testing.) | 1.60 | 1.56 | 1.44 | 1.72 | 1.20 | 1.00 | 0.78 | 0.87 | 1.39 | 1.65 | Reddish |  |  |  |
| CCCCN(c1ccc(N=Nc2ccc(N)cc2O)cc1)c1ccc(N=Nc2c(S(=O)(=O)O)cc3cc(S(=O)(=O)O)c(N=Nc4ccc(C(C)CC)cc4)c(O)c3c2N)cc1 (stereo not drawn) [Ex. 6] | A (Reflection density is more than 70% of that before testing.) | 1.09 | 1.04 | 1.28 | 1.48 | 1.33 | 0.82 | 1.13 | 1.11 | 1.32 | 1.60 | Reddish |  |  |  |
| CCCCCCN(c1ccc(N=Nc2ccc(N)cc2O)cc1)c1ccc(N=Nc2c(S(=O)(=O)O)cc3cc(S(=O)(=O)O)c(N=Nc4ccccc4C)c(O)c3c2N)cc1 [Ex. 7] | A (Reflection density is more than 70% of that before testing.) | 1.20 | 1.15 | 0.82 | 0.44 | 0.53 | 1.28 | 1.50 | 1.06 | 1.33 | 0.94 | Reddish |  |  |  |
| CCCCCCCCN(c1ccc(N=Nc2ccc(N)cc2O)cc1)c1ccc(N=Nc2c(S(=O)(=O)O)cc3cc(S(=O)(=O)O)c(N=Nc4ccc(S(=O)(=O)O)cc4)c(O)c3c2N)cc1 [Ex. 8] | B (Reflection density is 50 to 70% of that before testing.) | 1.25 | 1.22 | 1.16 | 0.88 | 0.91 | 0.98 | 0.94 | 0.91 | 0.93 | 1.02 | Reddish |  |  |  |
| Nc1ccc(N=Nc2ccc(Nc3ccc(N=Nc4c(S(=O)(=O)O)cc5cc(S(=O)(=O)O)c(N=Nc6ccccc6)c(O)c5c4N)cc3S(=O)(=O)O)cc2)c(O)c1 [compound 1, C.I. Direct Black 168, reference compound] | C (Reflection density is less than 50% that before testing.) | 0.83 | 0.88 | 1.08 | 1.38 | 3.38 | 0.82 | 1.13 | 0.88 | 0.88 | 0.88 | Reddish | False positive | Reddish black | false positive or positive |
